Key:
[1] = target: T1, NK1 receptor (Homo sapiens, UniProt P25103); test: Antagonism of tachykinin (SP)-induced phosphatidylinositol (PI) turnover in vitro, UCll cells; assay type: cell-based; conditions: SP agonist, 3 experiments
T1 construct: Receptor source for NK1 receptor is UCll cells; endogenous in cells; host or cells: UC11 cells (printed UCll)
Protocol: (§1) Tachykinin-mediated phosphatidylinositol (PI, inositol phosphate) accumulation was measured in UCll or SKLKB82#3 cells in the presence and absence of NK1 or NK2 receptor antagonists, respectively. Tissues were incubated in Krebs-Henseleit buffer at 37° C. with 95% O2 --5% CO2 gassing. Tissues were then incubated with fresh buffer containing 100 μCi of myo-[2-^3 H(N)] inositol at 37° C. for 60 min with gentle gassing. After washing twice in 5 ml room temperature buffer containing 10 mM LiCl, tissues were incubated for 30 min at room temperature with a buffer change at 15 min. […] The third elution was collected and 1 ml counted in 7 ml scintillation fluid. A 50 μl aliquot of the organic (bottom) phase was removed, dried in a scintillation vial and counted in 7 ml scintillation fluid.
(§2) The ratio of DPM in the aqueous phase aliquot (total inositol phosphates) to the DPM in the 50 μl organic phase aliquot (total [^3 H]inositol incorporated) was calculated for each sample. Data are expressed as a percent of agonist-induced accumulation of [^3 H]-inositol phosphates over basal levels. […] Dose-response graphs are constructed and the ability of the test compounds to inhibit tachykinin-induced phosphatidyinositol turnover determined with the aid of a computer program. […]

[2] = test system: UCll or SKLKB82#3 cells; test: Phosphatidylinositol (PI) turnover in vitro, UCll or SKLKB82#3 cells, statements not split by receptor; assay type: cell-based
Protocol: as §1, with “min. Buffer was removed and Krebs-Henseleit buffer (containing 40 μg/ml bacitracin, 4 μg/ml each of leupeptin and chymostatin, 0.1% bovine serum albumin and 10 mM each of thiorphan and LiCl) including the test compound is added. After 15 min, SP was added to UCll cells or NKA to SKLKB82#3 cells at various concentrations to start the reaction. After incubation for 60 min at room temperature the reaction was terminated by addition of 930 μl chloroform: methanol (1:2 by volume) to each tube, followed by 310 μl chloroform and 310 μl doubly distilled water.” for “min.”
as §2, with “program. Data is expressed as percent stimulation of total inositol phosphate accumulation over basal levels and normalized to the maximum response produced by SP.” for “program.”

[3] = target: T2, NK1 receptor (Cavia porcellus, UniProt P30547); test: Antagonism of iodinated tachykinin binding: NK1 receptor affinity in guinea pig lungs (125I-Bolton Hunter Lys-3 labeled substance P); conditions: 125I-substance P 0.1 nM, 90 min room temperature, mean of several experiments
T2 construct: evaluated in guinea pig lungs; tissue Keystone Biologicals, Cleveland, Ohio; host or cells: guinea pig lung
T2 sequence (P30547 whole entry): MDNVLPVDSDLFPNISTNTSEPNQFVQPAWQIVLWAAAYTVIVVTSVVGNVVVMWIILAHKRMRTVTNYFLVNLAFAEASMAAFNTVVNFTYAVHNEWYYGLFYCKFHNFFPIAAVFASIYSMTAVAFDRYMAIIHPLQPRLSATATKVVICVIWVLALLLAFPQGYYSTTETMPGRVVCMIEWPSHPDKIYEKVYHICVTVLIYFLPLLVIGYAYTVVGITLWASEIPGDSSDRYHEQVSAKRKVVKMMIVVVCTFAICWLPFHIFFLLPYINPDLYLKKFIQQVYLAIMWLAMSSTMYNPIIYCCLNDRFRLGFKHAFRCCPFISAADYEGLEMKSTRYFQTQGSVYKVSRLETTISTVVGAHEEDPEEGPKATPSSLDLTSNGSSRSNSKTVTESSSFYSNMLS
Protocol: (§3) The NK1 receptor affinity of proposed tachykinin antagonists was evaluated in guinea pig lungs (Keystone Biologicals, Cleveland, Ohio) and affinity for the NK2 receptor evaluated in HSKR-1 cells (which are mouse 3T3 fibroblasts expressing the human jejunal NK2 receptor). Tissues or cells were homogenized with a Polytron in 15 volumes of 50 mM Tris-HCl buffer (pH 7.4, 4° C.) and centrifuged. The pellet was resuspended in Tris-HCl buffer and was centrifuged; the pellet was washed twice by resuspension. The final pellet was resuspended at a concentration of 40 mg/ml for tissues and 20 mg/ml for cells in incubation buffer and remained at room temperature for at least 15 min prior to use. Receptor binding was initiated by addition of 250 ul membrane preparation in duplicate to 0.1 nM of the following radioligands: ^125 I-Bolton Hunter Lys-3 labeled substance P and ^125 iodohistidyl-1-neurokinin A; in a final volume of 500 ul of buffer containing 50 mM Tris-HCl (pH 7.4 at room temperature), 0.1% bovine serum albumin, 2 mM MnCl2, 40 ug/ml bacitracin, 4 μg/ml leupeptin and chymostatin, 1 μM thiorphan and various doses of the putative tachykinin antagonists. Incubations were performed at room temperature for 90 min (NK1 receptor assays) or 2 hr (NK2 receptor assay); binding was terminated by addition of 50 mM Tris-HCl buffer (pH 7.4, 4° C.) and filtration under vacuum through GF/B filters presoaked with 0.1% polyethyleneimine (NK, receptor assays) or 0.5% bovine serum albumin (NK2 receptor assay). Filter bound radioactivity was quantitated in a gamma counter. Nonspecific binding was defined as binding in the presence of 1 μM substance P or neurokinin A. Specific binding was calculated by subtracting nonspecific binding from total binding. Competition of iodinated SP or NKA binding by test compounds or standards was expressed as a percentage of this maximum competition. IC50 values (concentration required to inhibit 50% of receptor binding) were generated for each of the test compounds by nonlinear regression using an iterative curve fitting program (GraphPAD Inplot, San Diego, Calif.).
(§4) IC50 values for some of the compounds of the present invention are found in Table 1 and represent the mean of several experiments.

[4] = target: T3, human jejunal NK2 receptor (Homo sapiens, UniProt P21452); test: Antagonism of iodinated tachykinin binding: NK2 receptor affinity in HSKR-1 cells (125 iodohistidyl-1-neurokinin A); conditions: HSKR-1 cells (mouse 3T3 fibroblasts expressing human jejunal NK2 receptor); 125I-neurokinin A 0.1 nM; 2 hr room temperature; mean of several experiments
T3 construct: expressed in transfected cells; host or cells: HSKR-1 cells (mouse 3T3 fibroblasts)
T3 sequence (P21452 1-398): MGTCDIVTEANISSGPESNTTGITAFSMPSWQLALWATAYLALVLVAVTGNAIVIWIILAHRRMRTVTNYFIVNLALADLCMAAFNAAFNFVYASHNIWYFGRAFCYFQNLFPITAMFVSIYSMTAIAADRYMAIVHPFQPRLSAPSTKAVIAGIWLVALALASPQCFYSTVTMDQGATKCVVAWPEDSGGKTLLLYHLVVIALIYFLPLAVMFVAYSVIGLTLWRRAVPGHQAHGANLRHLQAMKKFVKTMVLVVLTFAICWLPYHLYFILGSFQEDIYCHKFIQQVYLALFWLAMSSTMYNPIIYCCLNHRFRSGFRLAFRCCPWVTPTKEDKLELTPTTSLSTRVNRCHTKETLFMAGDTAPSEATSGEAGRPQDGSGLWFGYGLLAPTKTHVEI
Protocol: as §3, §4

[5] = target: T4, NK2 receptor (Bos taurus, UniProt P05363); test: Antagonism of tachykinin (NKA)-induced phosphatidylinositol (PI) turnover in vitro, SKLKB82#3 cells; assay type: cell-based; conditions: NKA agonist, 3 experiments
T4 construct: expressed in transfected cells; host or cells: SKLKB82#3 cells (murine B82 fibroblasts, own knowledge)
T4 sequence (P05363 1-384): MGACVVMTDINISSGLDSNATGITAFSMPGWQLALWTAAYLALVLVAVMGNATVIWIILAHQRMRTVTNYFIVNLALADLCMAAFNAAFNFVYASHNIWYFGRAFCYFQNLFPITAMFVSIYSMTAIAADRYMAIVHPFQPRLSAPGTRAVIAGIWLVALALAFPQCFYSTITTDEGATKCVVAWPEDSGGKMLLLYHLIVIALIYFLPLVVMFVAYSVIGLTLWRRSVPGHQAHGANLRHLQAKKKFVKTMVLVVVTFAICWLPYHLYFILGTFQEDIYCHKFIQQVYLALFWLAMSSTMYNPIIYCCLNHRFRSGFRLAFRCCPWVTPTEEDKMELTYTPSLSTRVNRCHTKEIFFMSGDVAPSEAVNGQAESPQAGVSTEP
Protocol: as §1, §2

T1 sequence (P25103 whole entry): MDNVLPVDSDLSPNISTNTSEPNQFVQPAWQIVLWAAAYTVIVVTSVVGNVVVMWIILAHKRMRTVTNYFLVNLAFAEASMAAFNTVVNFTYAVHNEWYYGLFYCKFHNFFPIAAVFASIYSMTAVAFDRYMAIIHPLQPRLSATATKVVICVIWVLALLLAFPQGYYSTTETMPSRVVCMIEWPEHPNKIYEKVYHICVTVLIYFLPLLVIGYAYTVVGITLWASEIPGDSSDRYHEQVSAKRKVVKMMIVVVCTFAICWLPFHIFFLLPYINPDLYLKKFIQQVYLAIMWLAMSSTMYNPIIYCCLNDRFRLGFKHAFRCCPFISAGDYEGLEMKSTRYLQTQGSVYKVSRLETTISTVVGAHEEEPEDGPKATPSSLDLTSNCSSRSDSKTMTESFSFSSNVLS

COC(=O)[C@H](Cc1c[nH]c2ccccc12)NCCN[C@@H](Cc1ccc2ccccc2c1)C(=O)N(C)Cc1ccccc1OC [Compound No. 1]
-slope (Schild analysis), NK1 receptor [1]: 1.28 | pA2, tachykinin-induced PI turnover, NK1 receptor ([1]; Schild analysis): 7.34 | slope of the lines obtained by a Schild analysis versus one ([2]; Schild analysis, 3 experiments): not significantly different from one (1) | PI turnover when administered by itself (agonist activity) ([2]; compound alone, no tachykinin agonist): no PI turnover | mode of antagonism ([2]; from Schild analysis slope): competitive antagonist | IC50 [3]: 25.7 nM | IC50 [4]: 609 nM | -slope (Schild analysis), NK2 receptor [5]: 1.11 | pA2, tachykinin-induced PI turnover, NK2 receptor ([5]; Schild analysis): 6.70

— patent publication US5597845A, “Substituted alkyldiamine derivatives” (Merrell Pharmaceuticals Inc., priority 1994, dated 1997)
